Values joined by “and” are separate entries in the source; they are usually repeats but may differ in a detail not shown here. Equal entries are not always repeated. Where two headings read alike, the source gives them in different places.
Key:
[1] = tested on: spleen lymphocytes of SJL/J mice
Method: The purpose of this assay is to challenge lymphocytes in microcultures with one or more polyclonal mitogens at concentrations that will induce mitogenesis within 72 hours of stimulation.
In the mouse model, spleens are removed from different strains of mice and the spleen cells are teased free and suspended in RPMI-1640 tissue culture medium at a concentration of usually 1×10^7 ml. These cells are dispensed at a concentration of 5.0×10^5 cells per microculture well in a 96 well flat bottom 96 well tissue culture plate. All testing of the compounds of this invention or mitogens are done in replicates of 10. The cells are then treated with PHA, Con-A, specific antigens, or buffer only. If in vitro testing is done, varying concentrations of the compounds of this invention or buffer only are added to the cells as well. After treatment with the mitogens and/or compounds of this invention, the cells are incubated for 72 hours. The response of these cells to mitogens and/or the compounds of this invention is assessed using ^14 C-thymidine labeling on the fourth day at a concentration of 0.01 μCi/well. The labeled cells are harvested using a lymphocyte harvestor and placed onto fibrous paper discs. A scintillation cocktail is added to vials contaning the discs and the results are obtained using a LKB-liquid scintillation counter (Model 1216/Rackbeta II). The data is expressed as a ratio of the cpm of the mitogen stimulated group to the control (non-mitogen) treated group=lymphocyte stimulation index (LSI).
The lymphocyte stimulation assay may be performed directly on spleen cells obtained from various strains of mice not treated with the compounds of this invention or on lymphocytes obtained from […]. […] Alternatively, the mice may be treated in vivo with the compounds of this invention by intraperitoneal multi-dose schedules, followed by sacrifice and harvesting spleen lymphocytes. These cells are then tested for their response to polyclonal mitogens or specific antigens used to immunize the mice. In this sytem however, no additional compound is added to the in vitro lymphocyte stimulation assay system.
Three month old mice of the SJL/J strain, which are T-cell deficient, are treated with i.p. administration of 100, 200, or 400 mg/kg of Cpd. 1 or just buffer for four days. This is followed by a lymphocyte stimulation assay.
An in vivo lymphocyte stimulation assay was performed on SJL/J mice of different ages, either 2, 5, or 10 months. The mice received i.p. injections of either 100 mg/kg of Cpd. 1 or just buffer.

L5178Y tumor = conditions: 100 mg/kg i.p., 7 days
Method: (§1) Ten days later the resultant tumor nodule, about 1 cm in size, is surgically excised. If the excision was successful, no subcutaneous tumors develop at the site of implantation. […] These mice are considered to be in the tumor dormant state.
(§2) The effect of Cpd. 1 on the emergence from the L5178Y tumor dormant state is studied by treating forty DBA/2 mice with Cpd. 1 after the mice have undergone the TDS inducing procedure. […] 1 at 100 mg/kg and the remaining twenty mice receive buffer only. A partial peritoneal lavage is performed twenty-five days after the last dose of Cpd. 1 and the peritoneal exudate fluid is plated out for determination of tumor cell numbers (tumor cell quantitative assay). Survival time is recorded out to 90 days after challenge with the viable L5178Y tumor cells. The percent mortality is calculated for each group.
(§3) The effect of Cpd. 1 on the emergence from the L5178Y tumor dormant state was studied by treating forty DBA/2 mice with Cpd. 1 after the mice had undergone the TDS inducing procedure. Two days after the mice were challenged with i.p. administration of 50,000 viable L5178Y tumor cells, twenty of these mice received seven consecutive days of i.p. treatment with Cpd. 1 at 100 mg/kg and the remaining twenty mice received buffer only. A partial peritoneal lavage was performed twenty-five days after the last dose of Cpd. 1 and the peritoneal exudate fluid was plated out for determination of tumor cell numbers (tumor cell quantitative assay). Survival time was recorded out to 114 days after challenge with the viable L5178Y tumor cells. The percent mortality was calculated for each group.

L5178Y tumor cells = conditions: 100 mg/kg i.p., 7 days
Method: as §1, §2, §3

[2] = 100 mg/kg i.p., four days, three month old mice
[3] = 200 mg/kg i.p., four days, three month old mice
[4] = 400 mg/kg i.p., four days, three month old mice

## Cc1ccc(C2(O)C(=O)OC3C(O)COC32O)o1.Cc1ccc(C2(O)C(=O)OC3C(O)COC32O)o1.O=C1CCC(=O)O1 (stereo not shown) [Cpd. 1]
[1]; 100 mg/kg i.p., age 2 months
  Lymphocyte Stimulation Index, Con-A: 167
  Lymphocyte Stimulation Index, Control (no mitogen): 2.3
  Lymphocyte Stimulation Index, PHA: 32.6
[1]; 100 mg/kg i.p., age 5 months
  Lymphocyte Stimulation Index, Con-A: 12.9
  Lymphocyte Stimulation Index, Control (no mitogen): 1.9
  Lymphocyte Stimulation Index, PHA: 1.16
[1]; 100 mg/kg i.p., age 10 months
  Lymphocyte Stimulation Index, Con-A: 14.5
  Lymphocyte Stimulation Index, Control (no mitogen): 2.1
  Lymphocyte Stimulation Index, PHA: 9.18
[1]; [2]
  Lymphocyte Stimulation Index, Con-A: 5.01
  Lymphocyte Stimulation Index, Control (no mitogen): 0.573
  Lymphocyte Stimulation Index, PHA: 1.85
[1]; 100 mg/kg, 2 months of age
  Con-A response: increased
  PHA response: decreased
[1]; 100 mg/kg, 5 months of age
  mitogenesis response to PHA and Con-A: depressed mitogenesis response
[1]; 100 mg/kg, ten month old
  PHA and Con-A mitogenic response: significant stimulation
[1]; [3]
  Lymphocyte Stimulation Index, Con-A: 4.57
  Lymphocyte Stimulation Index, Control (no mitogen): 0.732
  Lymphocyte Stimulation Index, PHA: 1.79
[1]; [4]
  Lymphocyte Stimulation Index, Con-A: 3.30
  Lymphocyte Stimulation Index, Control (no mitogen): 0.693
  Lymphocyte Stimulation Index, PHA: 2.31
L5178Y tumor
  survival versus untreated controls: significantly greater survival
L5178Y tumor; 90 days post-challenge
  % Survival: 55.6%
  No. Survivors: 10
L5178Y tumor; 114 days post-challenge
  % Survival: 82.6%
  No. Survivors: 19
L5178Y tumor cells
  numbers of tumor cells recovered versus controls: significant reduction in the numbers of tumor cells
L5178Y tumor cells; 1,000 to 100,000 tumor cells
  Frequency of mice, Treated Group: 7 and 4
L5178Y tumor cells; >100,000 tumor cells
  % of Total, Treated Group: 6% and 4.3%
  Frequency of mice, Treated Group: 1

From patent publication US4620014A, “2-furylbutyrolactones and methods for using same” (priority 1983, dated 1986)
